Data taken from the supplement of paper PMC6045584.
± gives the standard deviation of the averaged measurements.

Columns and labels:
ABT-737 = compound: CN(C)CC[C@H](CSc1ccccc1)Nc1ccc(S(=O)(=O)NC(=O)c2ccc(N3CCN(Cc4ccccc4-c4ccc(Cl)cc4)CC3)cc2)cc1[N+](=O)[O-] [ABT-737]; assay: surviving fraction relative to DMSO-only wells; higher = less growth inhibition; conditions: exposure time: 5 days
Outline: (§1)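 After seeding at 250–500 cells per well in 384-well plates and a 24-hour wait, log-phase tumour cell lines were exposed without interruption for five days to inhibitors at 0.5, 1, 5, 10, 50, 100, 500 and 1000 nM. CellTiter-Glo luminescence was recorded after 10 minutes at room temperature. Viability is reported as surviving fraction, the luminescence normalised to the median of DMSO-only wells.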

2-METHOXYESTRADIOL = compound: COc1cc2c(cc1O)CC[C@@H]1[C@@H]2CC[C@]2(C)[C@@H](O)CC[C@@H]12 [2-METHOXYESTRADIOL]; assay: as above; conditions: exposure time: 5 days
Outline: as §1

Test System | surviving fraction (ABT-737; 0.5 nM) | surviving fraction (ABT-737; 1 nM) | surviving fraction (ABT-737; 5 nM) | surviving fraction (ABT-737; 10 nM) | surviving fraction (ABT-737; 50 nM) | surviving fraction (ABT-737; 100 nM) | surviving fraction (ABT-737; 500 nM) | surviving fraction (ABT-737; 1000 nM) | surviving fraction (2-METHOXYESTRADIOL; 0.5 nM) | surviving fraction (2-METHOXYESTRADIOL; 1 nM) | surviving fraction (2-METHOXYESTRADIOL; 5 nM) | surviving fraction (2-METHOXYESTRADIOL; 10 nM) | surviving fraction (2-METHOXYESTRADIOL; 50 nM) | surviving fraction (2-METHOXYESTRADIOL; 100 nM) | surviving fraction (2-METHOXYESTRADIOL; 500 nM) | surviving fraction (2-METHOXYESTRADIOL; 1000 nM)
SG27 HEADNECK | 1.26 ± 0.26 | 1.12 ± 0.12 | 1.19 ± 0.029 | 1.16 ± 0.079 | 1.15 ± 0.11 | 1.08 ± 0.13 | 0.88 ± 0.11 | 0.797 ± 0.059 | 1.14 ± 0.19 | 1.2 ± 0.083 | 1.04 ± 0.12 | 1.05 ± 0.081 | 1.05 ± 0.085 | 1.16 ± 0.2 | 1.09 ± 0.062 | 1.03 ± 0.079
SG28 HEADNECK | 1.25 ± 0.068 | 1.17 ± 0.064 | 1.02 ± 0.07 | 1.081 ± 0.0014 | 1.036 ± 0.0064 | 1.09 ± 0.021 | 1.13 ± 0.14 | 1.04 ± 0.016 | 1.07 ± 0.037 | 1.18 ± 0.096 | 0.94 ± 0.0042 | 1.11 ± 0.016 | 1.11 ± 0.13 | 1.06 ± 0.048 | 1.06 ± 0.066 | 1.02 ± 0.064
SG31 HEADNECK | 1.2 ± 0.19 | 1.51 ± 0.051 | 1.08 ± 0.21 | 1.04 ± 0.025 | 1.03 ± 0.18 | 1.2 ± 0.27 | 1.27 ± 0.25 | 1.12 ± 0.11 | 1.09 ± 0.23 | 1.12 ± 0.13 | 0.996 ± 0.26 | 1.09 ± 0.084 | 1 ± 0.077 | 0.949 ± 0.025 | 1.12 ± 0.13 | 0.962 ± 0.073
SG32 HEADNECK | 1.02 ± 0.13 | 0.981 ± 0.024 | 1.04 ± 0.11 | 1.17 ± 0.15 | 0.963 ± 0.025 | 1.23 ± 0.51 | 1.07 ± 0.0099 | 0.954 ± 0.045 | 1.04 ± 0.1 | 0.985 ± 0.03 | 1.04 ± 0.21 | 0.96 ± 0.083 | 0.947 ± 0.059 | 0.847 ± 0.075 | 0.62 ± 0.12 | 0.34 ± 0.034
SG43 HEADNECK | 0.947 ± 0.12 | 1.06 ± 0.25 | 0.889 ± 0.076 | 0.875 ± 0.057 | 0.769 ± 0.14 | 0.801 ± 0.069 | 0.656 ± 0.24 | 0.752 ± 0.34 | 0.84 ± 0.071 | 0.88 ± 0.13 | 0.807 ± 0.25 | 1.04 ± 0.39 | 0.702 ± 0.091 | 0.854 ± 0.23 | 0.91 ± 0.082 | 0.847 ± 0.11
SIHA CERVIX | 1.02 ± 0.017 | 1.1 ± 0.052 | 1.12 ± 0.033 | 1.08 ± 0.14 | 1.14 ± 0.056 | 1.2 ± 0.087 | 1.19 ± 0.056 | 1.14 ± 0.043 | 0.869 ± 0.011 | 0.902 ± 0.085 | 0.952 ± 0.092 | 0.979 ± 0.057 | 0.973 ± 0.047 | 1.02 ± 0.057 | 0.719 ± 0.062 | 0.611 ± 0.072
SJSA1 BONE | 1.59 ± 0.063 | 1.68 ± 0.045 | 1.63 ± 0.06 | 1.72 ± 0.049 | 1.66 ± 0.078 | 1.81 ± 0.12 | 1.74 ± 0.045 | 1.81 ± 0.14 | 0.941 ± 0.086 | 1.68 ± 0.14 | 1.73 ± 0.12 | 1.72 ± 0.037 | 1.75 ± 0.13 | 1.77 ± 0.08 | 1.67 ± 0.043 | 1.78 ± 0.08
SKBR3 BREAST | 1.04 ± 0.035 | 1.03 ± 0.07 | 0.988 ± 0.13 | 1.19 ± 0.13 | 0.976 ± 0.071 | 1.15 ± 0.09 | 1.01 ± 0.14 | 1.13 ± 0.13 | 0.913 ± 0.033 | 0.924 ± 0.16 | 1.09 ± 0.065 | 0.956 ± 0.12 | 0.986 ± 0.079 | 0.986 ± 0.056 | 0.882 ± 0.099 | 0.548 ± 0.051
SNU475 LIVER | 1.07 ± 0.017 | 1 ± 0.018 | 1.08 ± 0.083 | 1.05 ± 0.064 | 1.02 ± 0.039 | 1 ± 0.12 | 1.01 ± 0.061 | 0.972 ± 0.047 | 0.989 ± 0.048 | 1.01 ± 0.032 | 0.967 ± 0.026 | 0.968 ± 0.06 | 1.02 ± 0.053 | 0.997 ± 0.059 | 0.956 ± 0.057 | 0.775 ± 0.051
SUM44 BREAST | 1.28 ± 0.43 | 1.31 ± 0.53 | 1.32 ± 0.44 | 1.3 ± 0.53 | 1.28 ± 0.48 | 1.25 ± 0.48 | 1.2 ± 0.42 | 1.1 ± 0.34 | 1.14 ± 0.32 | 1.15 ± 0.3 | 1.14 ± 0.23 | 1.12 ± 0.2 | 1.3 ± 0.4 | 1.21 ± 0.33 | 0.837 ± 0.091 | 0.53 ± 0.054
SUM149 BREAST | 1.02 ± 0.036 | 1.07 ± 0.023 | 1.1 ± 0.061 | 1.08 ± 0.051 | 0.952 ± 0.058 | 1.07 ± 0.075 | 0.97 ± 0.049 | 0.961 ± 0.056 | 0.984 ± 0.04 | 0.997 ± 0.052 | 1.07 ± 0.072 | 0.955 ± 0.025 | 1 ± 0.052 | 0.934 ± 0.065 | 0.442 ± 0.052 | 0.133 ± 0.022
SUM149.B1*.S BREAST | 1.13 ± 0.027 | 1.1 ± 0.072 | 1.16 ± 0.021 | 1.12 ± 0.034 | 1.12 ± 0.057 | 1.11 ± 0.069 | 1.1 ± 0.024 | 1.16 ± 0.055 | 1.04 ± 0.011 | 1.02 ± 0.046 | 1.02 ± 0.025 | 1.02 ± 0.04 | 1.06 ± 0.025 | 1.08 ± 0.019 | 0.968 ± 0.015 | 0.628 ± 0.036
SUM159 BREAST | 1.1 ± 0.018 | 1.1 ± 0.028 | 1.12 ± 0.027 | 1.09 ± 0.026 | 1.095 ± 0.006 | 1.09 ± 0.021 | 1.11 ± 0.018 | 1.08 ± 0.014 | 1.02 ± 0.028 | 1.02 ± 0.028 | 1.01 ± 0.027 | 1.02 ± 0.022 | 1.02 ± 0.023 | 1.04 ± 0.021 | 0.9593 ± 0.0093 | 0.562 ± 0.074
SYO1 SYNOVIAL | 1.03 ± 0.048 | 1.039 ± 0.01 | 1.03 ± 0.07 | 1.025 ± 0.0082 | 1.04 ± 0.08 | 0.984 ± 0.048 | 0.752 ± 0.03 | 0.504 ± 0.024 | 0.933 ± 0.044 | 0.93 ± 0.038 | 0.933 ± 0.017 | 0.961 ± 0.046 | 0.946 ± 0.043 | 0.9446 ± 0.0033 | 0.441 ± 0.065 | 0.1008 ± 0.00069
T47D BREAST | 1.13 ± 0.026 | 1.08 ± 0.031 | 1.08 ± 0.08 | 1.08 ± 0.025 | 1.03 ± 0.2 | 1.089 ± 0.0036 | 1.11 ± 0.11 | 1.05 ± 0.035 | 1 ± 0.053 | 1.02 ± 0.017 | 0.9847 ± 0.0046 | 1.01 ± 0.038 | 1.06 ± 0.062 | 1.087 ± 0.0062 | 0.783 ± 0.033 | 0.543 ± 0.037
U2OS BONE | 1.04 ± 0.048 | 1.04 ± 0.026 | 1.06 ± 0.055 | 1.04 ± 0.012 | 1.08 ± 0.035 | 1.11 ± 0.024 | 1.06 ± 0.029 | 1.02 ± 0.038 | 1.03 ± 0.016 | 1.013 ± 0.0046 | 1.02 ± 0.043 | 1.02 ± 0.017 | 1.06 ± 0.017 | 1.01 ± 0.021 | 0.681 ± 0.02 | 0.359 ± 0.033
VCAP PROSTATE | 1.03 ± 0.065 | 0.971 ± 0.075 | 1.14 ± 0.15 | 1.04 ± 0.047 | 1.17 ± 0.078 | 1.13 ± 0.19 | 1.01 ± 0.1 | 0.94 ± 0.047 | 1.01 ± 0.05 | 0.983 ± 0.13 | 0.919 ± 0.054 | 1.1 ± 0.08 | 0.999 ± 0.075 | 1.06 ± 0.043 | 0.777 ± 0.069 | 0.231 ± 0.059
VP229 BREAST | 1.1 ± 0.09 | 1.12 ± 0.06 | 1.18 ± 0.11 | 1.12 ± 0.049 | 1.22 ± 0.11 | 1.17 ± 0.11 | 1.17 ± 0.017 | 1.13 ± 0.063 | 1.03 ± 0.077 | 1.09 ± 0.15 | 0.954 ± 0.093 | 1.04 ± 0.094 | 1.03 ± 0.15 | 1.18 ± 0.17 | 0.981 ± 0.058 | 0.801 ± 0.11
YAMATO SYNOVIAL | 1.27 ± 0.17 | 1.32 ± 0.11 | 1.35 ± 0.16 | 1.34 ± 0.043 | 1.33 ± 0.19 | 1.38 ± 0.029 | 1.27 ± 0.026 | 1.27 ± 0.14 | 1.06 ± 0.051 | 1.14 ± 0.052 | 1.08 ± 0.079 | 1.16 ± 0.028 | 1.18 ± 0.075 | 1.13 ± 0.11 | 0.521 ± 0.04 | 0.445 ± 0.031
ZR751 BREAST | 1.08 ± 0.16 | 1.1 ± 0.096 | 1.14 ± 0.17 | 1.02 ± 0.052 | 1.07 ± 0.071 | 1.03 ± 0.076 | 1.07 ± 0.095 | 1.03 ± 0.15 | 1.06 ± 0.12 | 1.04 ± 0.097 | 1.02 ± 0.039 | 1.13 ± 0.058 | 1.06 ± 0.048 | 1.04 ± 0.098 | 1.07 ± 0.039 | 0.645 ± 0.11
